# Test results as given in US12398097B2, “WDR5-MYC inhibitors” (Vanderbilt University, priority 2019, dated 2025).
# Target: WDR5 (Homo sapiens, UniProt P61964)
# Experiment: Competition-based fluorescence polarization anisotropy assay
# Conditions: binding to WDR5; displacement of FITC-labeled small molecule probe (analogous to Example J2 or HCH-25) or peptide probe FITC-AHx-SEEEIDVVSV; pH 6.0; Ki converted from IC50
# Summary of the method: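 Competition fluorescence polarization anisotropy binding to WDR5 using a FITC-labeled peptide probe or a fluorescently labeled small-molecule probe. Buffer: 200 mM phosphate, 300 mM NaCl, 0.5 mM TCEP, 0.1% Chaps, pH 6.0. Displacement data were converted to Ki.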
row,Molecule,Ki
1,"CCc1cc(O)c(S(=O)(=O)Nc2cc(Cl)cc(C(=O)O)c2O)cc1Cl [Example J12, 5-Chloro-3-((5-chloro-4-ethyl-2-hydroxyphenyl)sulfonamido)-2-hydroxybenzoic acid]",11100 nM
2,"CS(=O)(=O)c1cc(NS(=O)(=O)c2cc(Br)ccc2O)cc(C2(C#N)CCC2)c1 [Example S73, 5-bromo-N-(3-(1-cyanocyclobutyl)-5-(methylsulfonyl)phenyl)-2-hydroxybenzenesulfonamide]",1030 nM
3,"CCc1cc(NS(=O)(=O)c2cc(Br)cc(OC(F)(F)F)c2O)c(O)c(C(=O)O)c1 [HCH-13, 3-((5-Bromo-2-hydroxy-3-(trifluoromethoxy)phenyl)sulfonamido)-5-ethyl-2-hydroxybenzoic acid]",220 nM
4,"COC[C@H]1CCCN1C(=O)c1cc(OC(F)(F)F)cc(NS(=O)(=O)c2cc(Br)ccc2OC)c1O [Example J181, (R)-5-bromo-N-(2-hydroxy-3-(2-(methoxymethyl)pyrrolidine-1-carbonyl)-5-(trifluoromethoxy)phenyl)-2-methoxybenzenesulfonamide]",5880 nM
5,"CNC(=O)c1cc(Cl)cc(NS(=O)(=O)c2cc(Br)cc(Cl)c2O)c1 [Example S69, 3-((5-Bromo-3-chloro-2-hydroxyphenyl)sulfonamido)-5-chloro-N-methylbenzamide]",770 nM
6,Methyl 4-chloro-2-(N-(5-chloro-2-hydroxy-3-nitrophenyl)sulfamoyl)benzoate [NE5],460 nM
7,"O=C(NCC1(O)CCOCC1)c1cc(OC(F)(F)F)cc(NS(=O)(=O)c2cc(Br)cc(Cl)c2O)c1O [HCH-53, 3-((5-Bromo-3-chloro-2-hydroxyphenyl)sulfonamido)-2-hydroxy-N-((4-hydroxytetrahydro-2H-pyran-4-yl)methyl)-5-(trifluoromethoxy)benzamide]",170 nM
8,"CNC(=O)c1cc(S(F)(F)(F)(F)F)cc(NS(=O)(=O)c2cc(Br)cc(Cl)c2O)c1O [Example S63, 3-((5-Bromo-3-chloro-2-hydroxyphenyl)sulfonamido)-2-hydroxy-N-methyl-5-(pentafluoro-λ^6-sulfaneyl)benzamide]",160 nM
9,"CCc1cc(Br)cc(S(=O)(=O)Nc2cc(Cl)cc(C(=O)NC3COC3)c2O)c1O [HCH-58, 3-((5-Bromo-3-ethyl-2-hydroxyphenyl)sulfonamido)-5-chloro-2-hydroxy-N-(oxetan-3-yl)benzamide]",460 nM
10,"CN1CCC(O)(CNC(=O)c2cc(OC(F)(F)F)cc(NS(=O)(=O)c3cc(Br)cc(Cl)c3O)c2O)CC1 [HCH-50, 3-((5-Bromo-3-chloro-2-hydroxyphenyl)sulfonamido)-2-hydroxy-N-((4-hydroxy-1-methylpiperidin-4-yl)methyl)-5-(trifluoromethoxy)benzamide]",210 nM
11,"N#CC1(c2cc(NS(=O)(=O)c3cc(Br)ccc3O)c(O)c(C(=O)NCCN3CCOCC3)c2)CCC1 [Example J225, 3-((5-Bromo-2-hydroxyphenyl)sulfonamido)-5-(1-cyanocyclobutyl)-2-hydroxy-N-(2-morpholinoethyl)benzamide]",860 nM
12,"COc1ccc(Br)cc1S(=O)(=O)Nc1cc(Cl)cc([N+](=O)[O-])c1O [NE1, 5-Bromo-N-(5-chloro-2-hydroxy-3-nitrophenyl)-2-methoxybenzenesulfonamide]",1780 nM
13,"O=C(O)c1cc(OC(F)(F)F)cc(NS(=O)(=O)c2cc(Br)cc(CCCO)c2O)c1O [HCH-27, 3-((5-Bromo-2-hydroxy-3-(3-hydroxypropyl)phenyl)sulfonamido)-2-hydroxy-5-(trifluoromethoxy)benzoic acid]",400 nM
14,"COc1ccc(Br)cc1S(=O)(=O)Nc1cc(-c2ccccc2)cc(C(=O)O)c1O [Example J183, 5-((5-Bromo-2-methoxyphenyl)sulfonamido)-4-hydroxy-[1,1′-biphenyl]-3-carboxylic acid]",2380 nM
15,"O=C(NC1CC(O)C1)c1cc(OC(F)(F)F)cc(NS(=O)(=O)c2cc(Br)cc(Cl)c2O)c1O (stereo not shown) [HCH-61, 3-((5-Bromo-3-chloro-2-hydroxyphenyl)sulfonamido)-2-hydroxy-N-(3-hydroxycyclobutyl)-5-(trifluoromethoxy)benzamide]",240 nM
16,"CC(C)N(CCS(=O)(=O)c1cc(Cl)cc(NS(=O)(=O)c2cc(Br)ccc2O)c1)C(C)C [Example S41, 5-Bromo-N-(3-chloro-5-((2-(diisopropylamino)ethyl)sulfonyl)phenyl)-2-hydroxybenzenesulfonamide]",3810 nM
17,"N#CC1(c2ccc(O)c(NS(=O)(=O)c3cc(Br)ccc3O)c2)CCC1 [JDM-06-030B, 5-Bromo-N-(5-(1-cyanocyclobutyl)-2-hydroxyphenyl)-2-hydroxybenzenesulfonamide]",290 nM
18,"NC(=O)C(NC(=O)c1cc(OC(F)(F)F)cc(NS(=O)(=O)c2cc(Br)ccc2O)c1O)c1ccccn1 (stereo not shown) [HCH-49, N-(2-Amino-2-oxo-1-(pyridin-2-yl)ethyl)-3-((5-bromo-2-hydroxyphenyl)sulfonamido)-2-hydroxy-5-(trifluoromethoxy)benzamide]",320 nM
19,"O=C(O)c1cc(Cl)cc(NS(=O)(=O)c2cc(Br)c(F)cc2O)c1O [Example J9, 3-((5-Bromo-4-fluoro-2-hydroxyphenyl)sulfonamido)-5-chloro-2-hydroxybenzoic acid]",2670 nM
20,"COCCNC(=O)c1cc(Cl)cc(NS(=O)(=O)c2cc(Br)cc(Cl)c2O)c1O [Example J42, 3-((5-Bromo-3-chloro-2-hydroxyphenyl)sulfonamido)-5-chloro-2-hydroxy-N-(2-methoxyethyl)benzamide]",300 nM
21,"COc1ccc(Br)cc1S(=O)(=O)Nc1cc(Cl)cc(NC(C)=O)c1O [Example J200, N-(3-((5-Bromo-2-methoxyphenyl)sulfonamido)-5-chloro-2-hydroxyphenyl)acetamide]",68800 nM

# Results, then the molecule that gave them:
row,Ki,Molecule
1,1940 nM,"COc1ccc(Br)cc1S(=O)(=O)Nc1cc(C2CC2)cc(C(=O)O)c1O [Example J69, 3-((5-Bromo-2-methoxyphenyl)sulfonamido)-5-cyclopropyl-2-hydroxybenzoic acid]"
2,750 nM,"CNC(=O)c1cc(C2CC2)cc(NS(=O)(=O)c2cc(Br)ccc2O)c1O [Example J81, 3-((5-Bromo-2-hydroxyphenyl)sulfonamido)-5-cyclopropyl-2-hydroxy-N-methylbenzamide]"
3,1930 nM,"Cc1ccsc1-c1cc(NS(=O)(=O)c2cc(Br)ccc2O)c(O)c(C(=O)O)c1 [Example J197, 3-((5-Bromo-2-hydroxyphenyl)sulfonamido)-2-hydroxy-5-(3-methylthiophen-2-yl)benzoic acid]"
4,560 nM,"COCCNC(=O)c1cc(C2CC2)cc(NS(=O)(=O)c2cc(Br)ccc2O)c1O [Example J86, 3-((5-Bromo-2-hydroxyphenyl)sulfonamido)-5-cyclopropyl-2-hydroxy-N-(2-methoxyethyl)benzamide]"
5,20 nM,"N#CC1(c2cc(NS(=O)(=O)c3cc(Br)ccc3O)c(O)c(C(=O)O)c2)CCCCC1 [Example J231, 3-((5-Bromo-2-hydroxyphenyl)sulfonamido)-5-(1-cyanocyclohexyl)-2-hydroxybenzoic acid]"
6,640 nM,"O=C(O)c1c(O)c(NS(=O)(=O)c2cc(Br)ccc2O)cc(-c2ccsc2)c1F [Example J199, 3-((5-Bromo-2-hydroxyphenyl)sulfonamido)-6-fluoro-2-hydroxy-5-(thiophen-3-yl)benzoic acid]"
7,5270 nM,"O=C(O)c1cc(C2CC2)cc(NS(=O)(=O)c2cc(Br)ccc2NCC2CC2)c1O [Example J79, 3-((5-Bromo-2-((cyclopropylmethyl)amino)phenyl)sulfonamido)-5-cyclopropyl-2-hydroxybenzoic acid]"
8,650 nM,"O=C(O)CNC(=O)c1cc(OC(F)(F)F)cc(NS(=O)(=O)c2cc(Br)ccc2O)c1O [HCH-1, (3-((5-Bromo-2-hydroxyphenyl)sulfonamido)-2-hydroxy-5-(trifluoromethoxy)benzoyl)glycine]"
9,1500 nM,"N#CC1(c2cc(NS(=O)(=O)c3cc(Br)ccc3O)c(O)c(C(N)=O)c2)CCC1 [Example J218, 3-((5-Bromo-2-hydroxyphenyl)sulfonamido)-5-(1-cyanocyclobutyl)-2-hydroxybenzamide]"
10,810 nM,"CNC(=O)c1cc(OC(F)(F)F)cc(NS(=O)(=O)c2cc(Cl)ccc2O)c1O [Example J175, 3-((5-Chloro-2-hydroxyphenyl)sulfonamido)-2-hydroxy-N-methyl-5-(trifluoromethoxy)benzamide]"
11,180 nM,"COc1ccc(Br)cc1S(=O)(=O)Nc1cc(Cl)cc(C(=O)O)c1O [Example J2, 3-((5-Bromo-2-methoxyphenyl)sulfonamido)-5-chloro-2-hydroxybenzoic acid]"
12,50 nM,"O=C(O)c1cc(C2CC2)cc(NS(=O)(=O)c2cc(Br)ccc2O)c1O [Example J68, 3-((5-Bromo-2-hydroxyphenyl)sulfonamido)-5-cyclopropyl-2-hydroxybenzoic acid]"
13,450 nM,"CNC(=O)C(CO)NC(=O)c1cc(OC(F)(F)F)cc(NS(=O)(=O)c2cc(Br)ccc2O)c1O (stereo not shown) [HCH-46, 3-((5-Bromo-2-hydroxyphenyl)sulfonamido)-2-hydroxy-N-(3-hydroxy-1-(methylamino)-1-oxopropan-2-yl)-5-(trifluoromethoxy)benzamide]"
14,600 nM,"COCCCNC(=O)c1cc(C2CC2)cc(NS(=O)(=O)c2cc(Br)ccc2O)c1O [Example J88, 3-((5-Bromo-2-hydroxyphenyl)sulfonamido)-5-cyclopropyl-2-hydroxy-N-(3-methoxypropyl)benzamide]"
15,200 nM,"CNC(=O)c1cc(OC(F)(F)F)cc(NS(=O)(=O)c2cc(Br)cc(Cl)c2O)c1O [HCH-63, 3-((5-Bromo-3-chloro-2-hydroxyphenyl)sulfonamido)-2-hydroxy-N-methyl-5-(trifluoromethoxy)benzamide]"
16,940 nM,"O=C(NCCCO)c1cc(C2CC2)cc(NS(=O)(=O)c2cc(Br)ccc2O)c1O [Example J91, 3-((5-Bromo-2-hydroxyphenyl)sulfonamido)-5-cyclopropyl-2-hydroxy-N-(3-hydroxypropyl)benzamide]"
